Laboratory results reported in PubChem BioAssay (NCI).
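All cell lines were grown in 96-well plates and treated with compound for 48 hours. TGI denotes the concentration required for complete inhibition of growth.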

What was measured:
Test in all cases: inhibition of tumour cell growth, NCI panel, 48 h
[1] = system: NCI-H460 lung
[2] = system: SK-MEL-2 melanoma
[3] = system: IGROV1 ovarian
[4] = system: KM12 colon
[5] = system: HOP-62 NSCLC
[6] = system: A549 NSCLC
[7] = system: NCI-H226 lung
[8] = system: MDA-MB-435
[9] = system: LOX IMVI melanoma
[10] = system: NCI-H23 lung
[11] = system: MALME-3M melanoma
[12] = system: OVCAR-5 ovarian
[13] = system: MOLT-4 leukemia
[14] = system: RPMI-8226 leukemia
[15] = system: OVCAR-3 ovarian
[16] = system: SW-620 colon
[17] = system: MDA-MB-231 breast
[18] = system: SNB-19 CNS
[19] = system: MCF7 breast
[20] = system: HCC-2998 colon
[21] = system: RXF 393 renal
[22] = system: T-47D breast
[23] = system: SF-295 CNS
[24] = system: HCT-15 colon
[25] = system: U251 CNS
[26] = system: NCI-H522 lung
[27] = system: DU-145 prostate
[28] = system: HCT-116 colon
[29] = system: SK-OV-3 ovarian
[30] = system: M14 melanoma
[31] = system: SF-539 CNS
[32] = system: SF-268 CNS
[33] = system: HS 578T breast
[34] = system: SNB-75 CNS
[35] = system: SN12C renal
[36] = system: MDA-N
[37] = system: SK-MEL-5 melanoma
[38] = system: HL-60(TB) leukemia
[39] = system: EKVX NSCLC
[40] = system: PC-3 prostate
[41] = system: OVCAR-8 ovarian
[42] = system: CAKI-1 renal
[43] = system: HT29 colon
[44] = system: CCRF-CEM leukemia
[45] = system: UACC-257 melanoma
[46] = system: UO-31 renal
[47] = system: COLO 205 colon
[48] = system: 786-0 renal
[49] = system: NCI/ADR-RES ovarian
[50] = system: K-562 leukemia
[51] = system: UACC-62 melanoma
[52] = system: SK-MEL-28 melanoma
[53] = system: ACHN renal
[54] = system: A498 renal
[55] = system: TK-10 renal
[56] = system: HOP-92 NSCLC
[57] = system: SR leukemia
[58] = system: BT-549 breast
[59] = system: OVCAR-4 ovarian

With `COc1ccc(/C=C/C(=O)CC(=O)/C=C/c2ccc(OC)cc2)cc1` the TGI [1] was over 100 µM, the TGI [2] was over 100 µM and the TGI [3] was over 100 µM. The TGI [4] was over 100 µM, the TGI [5] was over 100 µM and the TGI [6] was over 100 µM. It also gave a TGI [7] of over 100 µM, a TGI [8] of over 100 µM and a TGI [9] of 25.1 µM. The TGI [10] was 95.1 µM, the TGI [11] was over 100 µM and the TGI [12] was over 100 µM. For the same molecule, the TGI [13] was 70.8 µM, the TGI [14] was over 100 µM and the TGI [15] was 75.5 µM. It also gave a TGI [16] of over 100 µM, a TGI [17] of over 100 µM and a TGI [18] of over 100 µM. The TGI [19] was over 100 µM, the TGI [20] was over 100 µM and the TGI [21] was 80 µM. The TGI [22] was over 100 µM, the TGI [23] was over 100 µM and the TGI [24] was over 100 µM. For the same molecule, the TGI [25] was over 100 µM, the TGI [26] was 67 µM and the TGI [27] was over 100 µM. The TGI [28] was 34.5 µM, the TGI [29] was over 100 µM and the TGI [30] was over 100 µM. It also gave a TGI [31] of 78.7 µM, a TGI [32] of over 100 µM and a TGI [33] of 99.8 µM. It also gave a TGI [34] of over 100 µM, a TGI [35] of over 100 µM and a TGI [36] of over 100 µM. The TGI [37] was over 100 µM, the TGI [38] was 64.5 µM and the TGI [39] was over 100 µM. The TGI [40] was over 100 µM, the TGI [41] was 52.7 µM and the TGI [42] was over 100 µM. The TGI [43] was over 100 µM, the TGI [44] was 54.9 µM and the TGI [45] was over 100 µM. For the same molecule, the TGI [46] was over 100 µM, the TGI [47] was over 100 µM and the TGI [48] was 89.1 µM. For the same molecule, the TGI [49] was over 100 µM, the TGI [50] was over 100 µM and the TGI [51] was over 100 µM. It also gave a TGI [52] of over 100 µM.

`Oc1ccc(CCNCc2cc3c(cc2Br)OCO3)cc1` showed a TGI [1] of over 100 µM, a TGI [2] of 74.6 µM and a TGI [3] of over 100 µM. The TGI [5] was over 100 µM, the TGI [6] was over 100 µM and the TGI [7] was over 100 µM. For the same molecule, the TGI [53] was over 100 µM, the TGI [9] was over 100 µM and the TGI [54] was over 100 µM. It also gave a TGI [10] of over 100 µM, a TGI [11] of over 100 µM and a TGI [12] of over 100 µM. For the same molecule, the TGI [13] was over 100 µM, the TGI [14] was over 100 µM and the TGI [15] was over 100 µM. The TGI [16] was over 100 µM, the TGI [17] was over 100 µM and the TGI [55] was over 100 µM. It also gave a TGI [18] of over 100 µM, a TGI [19] of over 100 µM and a TGI [21] of over 100 µM. It also gave a TGI [22] of over 100 µM, a TGI [23] of over 100 µM and a TGI [24] of over 100 µM. The TGI [25] was over 100 µM, the TGI [26] was over 100 µM and the TGI [27] was over 100 µM. It also gave a TGI [28] of over 100 µM, a TGI [29] of over 100 µM and a TGI [56] of over 100 µM. It also gave a TGI [30] of over 100 µM, a TGI [57] of over 100 µM and a TGI [31] of over 100 µM. For the same molecule, the TGI [32] was over 100 µM, the TGI [33] was over 100 µM and the TGI [34] was 84.8 µM. The TGI [35] was over 100 µM, the TGI [36] was over 100 µM and the TGI [37] was over 100 µM. It also gave a TGI [38] of 84.4 µM, a TGI [39] of over 100 µM and a TGI [40] of over 100 µM. It also gave a TGI [41] of over 100 µM, a TGI [43] of over 100 µM and a TGI [44] of over 100 µM. The TGI [45] was over 100 µM, the TGI [46] was over 100 µM and the TGI [47] was 40.8 µM. The TGI [48] was over 100 µM, the TGI [49] was over 100 µM and the TGI [50] was over 100 µM. For the same molecule, the TGI [51] was over 100 µM, the TGI [52] was 98.2 µM and the TGI [58] was over 100 µM.

For `CC(C)(CCCCC(C)(C)C1NC(=O)N1)C1NC(=O)N1`, the TGI [1] was over 10 µM, the TGI [2] was over 10 µM and the TGI [3] was over 10 µM. The TGI [4] was over 10 µM, the TGI [5] was over 10 µM and the TGI [6] was over 10 µM. For the same molecule, the TGI [7] was over 10 µM, the TGI [53] was over 10 µM and the TGI [8] was over 10 µM. The TGI [9] was over 10 µM, the TGI [54] was over 10 µM and the TGI [10] was over 10 µM. The TGI [11] was over 10 µM, the TGI [12] was over 10 µM and the TGI [13] was over 10 µM. It also gave a TGI [14] of over 10 µM, a TGI [16] of over 10 µM and a TGI [17] of over 10 µM. It also gave a TGI [55] of over 10 µM, a TGI [18] of over 10 µM and a TGI [19] of over 10 µM. The TGI [20] was over 10 µM, the TGI [21] was over 10 µM and the TGI [22] was over 10 µM. The TGI [23] was over 10 µM, the TGI [24] was over 10 µM and the TGI [25] was over 10 µM. It also gave a TGI [26] of over 10 µM, a TGI [27] of over 10 µM and a TGI [28] of over 10 µM. It also gave a TGI [29] of over 10 µM, a TGI [30] of over 10 µM and a TGI [31] of over 10 µM. For the same molecule, the TGI [32] was over 10 µM, the TGI [33] was over 10 µM and the TGI [34] was over 10 µM. For the same molecule, the TGI [35] was over 10 µM, the TGI [36] was over 10 µM and the TGI [37] was over 10 µM. For the same molecule, the TGI [38] was over 10 µM, the TGI [39] was over 10 µM and the TGI [40] was over 10 µM. For the same molecule, the TGI [41] was over 10 µM, the TGI [42] was over 10 µM and the TGI [43] was over 10 µM. The TGI [44] was over 10 µM, the TGI [59] was over 10 µM and the TGI [46] was over 10 µM. It also gave a TGI [47] of over 10 µM, a TGI [49] of over 10 µM and a TGI [50] of over 10 µM. It also gave a TGI [51] of over 10 µM and a TGI [52] of over 10 µM.

`O/N=C(\CC(O)(C(F)(F)F)C(F)(F)F)c1cccc(Cl)c1` was tested, and the TGI [1] was over 100 µM, the TGI [2] was 63.5 µM and the TGI [3] was 84.4 µM. It also gave a TGI [4] of over 100 µM, a TGI [6] of over 100 µM and a TGI [7] of 60.2 µM. It also gave a TGI [53] of 65.9 µM, a TGI [8] of 85.9 µM and a TGI [9] of 62.5 µM. For the same molecule, the TGI [54] was over 100 µM, the TGI [10] was 49.2 µM and the TGI [11] was over 100 µM. For the same molecule, the TGI [12] was over 100 µM, the TGI [13] was 38.8 µM and the TGI [14] was over 100 µM. It also gave a TGI [15] of 49.4 µM, a TGI [16] of over 100 µM and a TGI [17] of 56.9 µM. It also gave a TGI [55] of 98.8 µM, a TGI [19] of over 100 µM and a TGI [20] of over 100 µM. It also gave a TGI [21] of 46.5 µM, a TGI [22] of 79.7 µM and a TGI [23] of over 100 µM. For the same molecule, the TGI [24] was over 100 µM, the TGI [25] was 49 µM and the TGI [26] was over 100 µM. It also gave a TGI [27] of over 100 µM, a TGI [28] of over 100 µM and a TGI [29] of 58.5 µM. The TGI [56] was 56.6 µM, the TGI [30] was 62.7 µM and the TGI [57] was over 100 µM. The TGI [31] was 85.9 µM, the TGI [33] was 53 µM and the TGI [34] was 57.6 µM. It also gave a TGI [36] of over 100 µM, a TGI [37] of 31.6 µM and a TGI [38] of 82.2 µM. The TGI [39] was 67.6 µM, the TGI [40] was 83.3 µM and the TGI [41] was over 100 µM. For the same molecule, the TGI [42] was 68.7 µM, the TGI [43] was over 100 µM and the TGI [44] was 47.4 µM. The TGI [45] was over 100 µM, the TGI [59] was over 100 µM and the TGI [47] was over 100 µM. The TGI [48] was over 100 µM, the TGI [49] was over 100 µM and the TGI [50] was over 100 µM. The TGI [51] was over 100 µM and the TGI [52] was over 100 µM.
